# Measurements: US20240358692A1, “TREATMENT OF SCLERODERMA” (Aisa Pharma, Inc., priority 2023, published 2024)
# Tested on: participants with SSc-RP
# Assay: SHAQ - Standard Disability Index
# Format: in vivo, human
# Parameters: key to SHAQ Standard Disability Index, In-Clinic Visit (Day 12), Mean / SHAQ Standard Disability Index, In-Clinic Visit (Day 12), Median / SHAQ Standard Disability Index, Day 12, Mean / SHAQ Standard Disability Index, Day 12, Median: 0 = without any difficulty to 3 = unable to do
# Details: Tadalafil 5 mg
# Description: The standard, validated, patient reported outcome measures tool for SSc patients, the Scleroderma Health Assessment Questionnaire (SHAQ), will be used to assess the participant qualify of life. Details are attached in the Appendix. The participant quality of life will be scored, and a disability index calculated for each questionnaire completed by the patient at Screening and each in-clinic visit. The absolute change in participant quality of life from baseline to the end of each dosing period will be calculated similar to frequency data as before.
# The SHAQ is used to calculate a Disability Index to assess the participant qualify of life. The eight categories assessed by the Disability Index are 1) dressing and grooming, 2) arising, 3) eating, 4) walking, 5) hygiene, 6) reach, 7) grip, and 8) common daily activities. For each of these categories, patients report the amount of difficulty they have in performing two or three specific activities.
# There are four possible responses for the Disability Index questions: • Without any difficulty=0 • With some difficulty=1 • With much difficulty=2 • Unable to do=3 • The highest score reported by the patient for any component question of the eight categories determines the score for that category. • If a component question is left blank or the response is too ambiguous to assign a score, then the score for that category is determined by the remaining completed question(s). • If all component questions are blank or if more than one answer is given, then follow up with the respondent is required. • If the respondent's mark is between the response columns, then move it to the closest one. If it's directly between the two, move it to the higher one.
# This question results in a new set of category scores that are computed by adjusting the score for each category, if necessary, based on the patient's use of an aid or device or assistance for that category. If either devices and/or help from another person are checked for a category, the score is set to “2”, unless the score is already “3” (i.e., scores of “0” or “1” are increased to “2”). For example, if the highest score for the dressing category is “1”, and the patient says they use a device for dressing, the computed category score would be “2”. The sum of the computed categories scores is then calculated and divided by the number of categories answered. This gives a score in the 0 to 3 range.
# [1] = Day 12, PP Population Part A, sensitivity analysis
smiles,measurement,setting,value
CN1CC(=O)N2[C@H](c3ccc4c(c3)OCO4)c3[nH]c4ccccc4c3C[C@@H]2C1=O [Tadalafil],"SHAQ Standard Disability Index, In-Clinic Visit (Day 12), Mean",[1],0.531
same,"SHAQ Standard Disability Index, In-Clinic Visit (Day 12), Median",[1],0.563
same,"SHAQ Standard Disability Index, Change from Baseline, Max","SSc patients, PP, Part A",0.00
same,"SHAQ Standard Disability Index, Change from Baseline, Min","SSc patients, PP, Part A","−0.13,"
same,"SHAQ Standard Disability Index, Change from Baseline, Q1","SSc patients, PP, Part A","−0.125,"
same,"SHAQ Standard Disability Index, Change from Baseline, Q3","SSc patients, PP, Part A",0.000
same,"SHAQ Standard Disability Index, Day 12, Max","SSc patients, PP, Part A",1.00
same,"SHAQ Standard Disability Index, Day 12, Min","SSc patients, PP, Part A","0.00,"
same,"SHAQ Standard Disability Index, Day 12, Q1","SSc patients, PP, Part A","0.250,"
same,"SHAQ Standard Disability Index, Day 12, Q3","SSc patients, PP, Part A",0.813
same,"SHAQ Standard Disability Index, Percent Change from Baseline, Max","SSc patients, PP, Part A",0.0
same,"SHAQ Standard Disability Index, Percent Change from Baseline, Min","SSc patients, PP, Part A","−16.7,"
same,"SHAQ Standard Disability Index, Percent Change from Baseline, Q1","SSc patients, PP, Part A","−16.67,"
same,"SHAQ Standard Disability Index, Percent Change from Baseline, Q3","SSc patients, PP, Part A",0.00
